The nature of data set [1]: Cytotoxicity against mouse NIH3T3 cells assessed as reduction in cell proliferation incubated for 48 hrs by CCK-8 assay. The data set is classed as toxicity, cell-based. For orientation: Tetrazolium assays rely on reduction of a dye to a coloured formazan, in cell work by metabolically active cells.
In data set [2] the test system is HepG2. Put plainly: cells. The settings on record: Homo sapiens, HepG2, 48 h.
Data set [3] concerns Hepa 1-6. The data set is described as follows: cells. Particulars: Mus musculus, Hepa1-6, 48 h.
In data set [4] the test system is MC-38. Put plainly: cells. Particulars: Mus musculus, MC-38, 48 h.
In data set [5] the test system is MCF7. Put plainly: cells. The settings on record: Homo sapiens, MCF7, 48 h.
For data set [6], the target named is T1, Sphingosine kinase 2 (Homo sapiens, UniProt Q9NRA0).
T1 sequence (Q9NRA0 whole entry): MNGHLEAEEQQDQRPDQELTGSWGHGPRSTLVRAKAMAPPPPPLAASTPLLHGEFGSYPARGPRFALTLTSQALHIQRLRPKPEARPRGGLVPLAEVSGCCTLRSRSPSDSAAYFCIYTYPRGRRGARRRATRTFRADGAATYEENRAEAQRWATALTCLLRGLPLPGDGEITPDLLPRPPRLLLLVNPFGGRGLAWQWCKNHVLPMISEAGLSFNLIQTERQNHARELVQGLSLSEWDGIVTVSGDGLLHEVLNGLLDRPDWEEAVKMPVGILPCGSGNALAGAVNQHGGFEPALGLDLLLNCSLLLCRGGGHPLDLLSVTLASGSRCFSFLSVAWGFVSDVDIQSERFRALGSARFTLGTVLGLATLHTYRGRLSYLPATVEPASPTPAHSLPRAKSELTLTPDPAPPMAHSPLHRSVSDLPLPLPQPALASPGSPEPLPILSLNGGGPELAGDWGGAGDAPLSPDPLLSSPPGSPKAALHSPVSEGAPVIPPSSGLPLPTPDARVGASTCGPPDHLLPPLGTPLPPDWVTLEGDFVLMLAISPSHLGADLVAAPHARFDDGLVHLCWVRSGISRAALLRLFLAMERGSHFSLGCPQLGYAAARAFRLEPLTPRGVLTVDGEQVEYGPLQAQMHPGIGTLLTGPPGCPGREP
Put plainly: Inhibition of SphK2 (unknown origin) using sphingosine as substrate incubated for 30 mins in presence of ATP by ADP-Glo assay. Background: In ADP-Glo the light output rises with the ADP produced.

Data set [7] is described as follows: Aqueous solubility of compound in phosphate buffer at pH 2.0 by HPLC analysis. In kind it is physicochemical.
The nature of data set [8]: Aqueous solubility of compound in phosphate buffer at pH 7.4 by HPLC analysis. In kind it is physicochemical.
Data set [9] in a line: Aqueous solubility of compound in phosphate buffer at pH 9.0 by HPLC analysis. The data set is classed as physicochemical.
Data set [10] concerns HepG2. Put plainly: Induction of apoptosis in human HepG2 cells assessed as viable cells at 5 uM incubated for 48 hrs by Annexin V/FITC-PI staining based flow cytometry (reference value: 91.15%). Particulars: read-out: Activity. The data set is classed as functional. A general note: Flow cytometry measures light scatter and fluorescence of single cells or particles in a stream.

Data set [11] relates to HepG2. Put plainly: Induction of apoptosis in human HepG2 cells assessed as early apoptotic cells at 5 uM incubated for 48 hrs by Annexin V/FITC-PI staining based flow cytometry (reference value: 1.98%). In kind it is functional.
The subject of data set [12] is HepG2. Put plainly: Induction of apoptosis in human HepG2 cells assessed as late apoptotic cells at 5 uM incubated for 48 hrs by Annexin V/FITC-PI staining based flow cytometry (reference value: 3.32%). In kind it is functional.
In data set [13] the test system is HepG2. Put plainly: Induction of apoptosis in human HepG2 cells assessed as necrotic cells at 5 uM incubated for 48 hrs by Annexin V/FITC-PI staining based flow cytometry (reference value: […]). The data set is classed as functional.
Data set [14] concerns HepG2. Put plainly: Induction of apoptosis in human HepG2 cells assessed as viable cells at 20 uM incubated for 48 hrs by Annexin V/FITC-PI staining based flow cytometry (reference value: 91.15%). In kind it is functional. Particulars: read-out: Activity.
Data set [15] relates to HepG2. Put plainly: Induction of apoptosis in human HepG2 cells assessed as early apoptotic cells at 20 uM incubated for 48 hrs by Annexin V/FITC-PI staining based flow cytometry (reference value: 1.98%). In kind it is functional.
Data set [16] relates to HepG2. Put plainly: Induction of apoptosis in human HepG2 cells assessed as late apoptotic cells at 20 uM incubated for 48 hrs by Annexin V/FITC-PI staining based flow cytometry (reference value: 3.32%). The data set is classed as functional.
Data set [17] concerns HepG2. Put plainly: Induction of apoptosis in human HepG2 cells assessed as necrotic cells at 20 uM incubated for 48 hrs by Annexin V/FITC-PI staining based flow cytometry (reference value: […]). In kind it is functional.
For data set [18], the system named is HepG2. Put plainly: Induction of apoptosis in human HepG2 cells assessed as viable cells at 50 uM incubated for 48 hrs by Annexin V/FITC-PI staining based flow cytometry (reference value: 91.15%). In kind it is functional. The settings on record: read-out: Activity.
Data set [19] has as its system HepG2. Put plainly: Induction of apoptosis in human HepG2 cells assessed as early apoptotic cells at 50 uM incubated for 48 hrs by Annexin V/FITC-PI staining based flow cytometry (reference value: 1.98%). In kind it is functional.
Data set [20] deals with HepG2. The data set is described as follows: Induction of apoptosis in human HepG2 cells assessed as late apoptotic cells at 50 uM incubated for 48 hrs by Annexin V/FITC-PI staining based flow cytometry (reference value: 3.32%). The data set is classed as functional.
Data set [21] concerns HepG2. The data set is described as follows: Induction of apoptosis in human HepG2 cells assessed as necrotic cells at 50 uM incubated for 48 hrs by Annexin V/FITC-PI staining based flow cytometry (reference value: […]). In kind it is functional.
Data set [22] concerns HepG2. Put plainly: Downregulation of SIP level in human HepG2 cells incubated for 48 hrs by SIP competitive ELISA method. In kind it is functional, cell-based. The settings on record: dose 0-60 µM.
The test system of data set [23] is HepG2. Put plainly: Upregulation od SPH level in human HepG2 cell incubated for 48 hrs by SPH competitive ELISA method. Particulars: dose 0-60 µM. In kind it is functional, cell-based.
Data set [24] deals with HepG2. Put plainly: Inhibition of cell migration in human HepG2 cells assessed as scratch healing incubated for 24 to 48 hrs by wound healing assay. The settings on record: dose 10-30 µM, time lower 24.0 hrs, time upper […]. The data set is classed as functional, cell-based.
Data set [25] has as its system Mus musculus. The data set is described as follows: In vivo inhibition SphK2 in female C57BL/6j mouse assessed as decrease in plasma SIP level at 10 to 30 mg/kg, ip measured after 4 hrs by SIP competitive ELISA method. In kind it is functional, organism-based. Particulars: dose 10-30 mg/kg.
The subject of data set [26] is HepG2. Put plainly: Induction of cell cycle arrest in human HepG2 cells assessed as accumulation of cell at G2 phase at 0 to 50 uM incubated for 48 hrs by PI staining based flow cytometric analysis. In kind it is functional. The settings on record: dose 0-50 µM.
Data set [27] addresses T1, Sphingosine kinase 2. The data set is described as follows: Inhibition of SphK2 (unknown origin).
Data set [28] has as its target Sphingosine kinase 1 (Homo sapiens, UniProt Q9NYA1). The data set is described as follows: Inhibition of SphK1 (unknown origin).

In brackets after ≈: the same amount, converted by molar mass. Activity calls are given as the source filed them. The rule behind the calls is not given here. Bounds are passed on as bounds.

These results are taken from ChEMBL document CHEMBL6127008, “Discovery and biological evaluation of biaryl acetamide derivatives as selective and in vivo active sphingosine kinase-2 inhibitors” (Eur J Med Chem, 2024).

Sequence of Sphingosine kinase 1 (Q9NYA1 whole entry): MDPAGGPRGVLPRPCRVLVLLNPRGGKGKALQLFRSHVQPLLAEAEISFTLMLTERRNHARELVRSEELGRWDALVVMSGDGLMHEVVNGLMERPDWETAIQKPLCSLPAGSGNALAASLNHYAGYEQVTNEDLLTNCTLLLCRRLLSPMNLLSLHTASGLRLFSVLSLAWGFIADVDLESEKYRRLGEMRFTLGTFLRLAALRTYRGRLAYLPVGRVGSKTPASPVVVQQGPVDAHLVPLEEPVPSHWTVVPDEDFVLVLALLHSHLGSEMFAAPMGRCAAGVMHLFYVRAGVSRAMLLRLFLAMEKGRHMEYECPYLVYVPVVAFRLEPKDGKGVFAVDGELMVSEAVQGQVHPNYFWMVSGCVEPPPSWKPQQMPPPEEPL

What is called IC50 is the concentration at which inhibition is half-maximal. Consider `NC(=O)[C@@H]1CCCN1C(=O)Cc1ccc(-c2ccc(OCc3ccccc3)nc2)cc1`, for which, in data set [1], the half-inhibitory concentration (IC50) at 48 h was > 100 µM. In addition, the concentration for half-maximal inhibition (IC50) is > 100 µM in data set [2], 66.3 µM in data set [3], > 100 µM in [4] and > 100 µM in data set [5].
For the compound `O=C(Cc1ccc(-c2cnc(OCc3ccc(Cl)cc3)cn2)cc1)N1CCC[C@H]1CO`, the IC50 at 48 h in data set [1] is > 100 µM. Further, the IC50 was 46.4 µM in data set [2], 57.4 µM in [3], > 100 µM in data set [4] and > 100 µM in [5].
Turning to `O=C(NCc1ccncc1)C12CC3CC(C1)CC(c1ccc(Cl)cc1)(C3)C2` [ABC-294640], the IC50 in data set [6] stood at 11.4 µM; in [2], 25.6 µM; in data set [3] it was 41.9 µM; in data set [4] it was 34.6 µM; in [5], 33.5 µM. Moreover, the concentration for half-maximal inhibition (IC50) at 48 h in data set [1] is > 100 µM.
A word on the solubility: it is how much of the substance goes into solution per volume. Take `O=C(Cc1ccc(-c2ccc(OCc3ccc(Cl)c(Cl)c3)nc2)cc1)N1CCC[C@H]1CO`: in data set [1], the half-inhibitory concentration (IC50) at 48 h is > 100 µM. Further, the solubility was 6.87 µM (≈ 3.24 µg/mL) in [7], 197 µM (≈ 92.6 µg/mL) in data set [8] and 46.9 µM (≈ 22.1 µg/mL) in data set [9]. Moreover, the viability at 5 µM in data set [10] was determined as 85.7%. The Activity is recorded as 0.93% in data set [11]; 6.61% in [12]; 6.77% in data set [13]; 1.46% in [15]; 11.01% in data set [16]; 4.62% in data set [17]. Also, the Activity was 11.1% in [19]; 10.09% in data set [20]; 11.19% in data set [21]; “Dose-Dependent Effect” in [22]; “Dose-Dependent Effect” in data set [23]; “Dose-Dependent Effect” in [24]. The viability at 20 µM in data set [14] was found to be 82.9%. For the same compound, the viability at 50 µM in data set [18] turned out to be 67.6%. The outcome in data set [25] and in [26] was Active. Moreover, the IC50 was found to be 25.4 µM in data set [2], 46.1 µM in data set [3], 20.9 µM in [4] and 14.7 µM in data set [5].
`CS(=O)(=O)c1ccc(-c2sc(NS(=O)(=O)c3ccc(Br)cc3)nc2-c2ccccc2)cc1`: in [27], the half-maximal inhibitory concentration (IC50) is > 10 µM.
As for `CCCCCOc1ccc2cc(-c3noc([C@@H]4[C@@H](O)CCN4C(=N)N)n3)ccc2c1`, in data set [6], the IC50 worked out at 1.5 µM.
As for `O=C(Cc1ccc(-c2cnc(OCc3ccc(C(F)(F)F)cc3)cn2)cc1)N1CCC[C@H]1CO`, the half-maximal inhibitory concentration (IC50) at 48 h in data set [1] is > 100 µM. For the same compound, the solubility in data set [7] was 38.6 µM (≈ 18.2 µg/mL); in [8], 164 µM (≈ 77.5 µg/mL); in data set [9], 60.4 µM (≈ 28.5 µg/mL). Further, the Activity result in data set [22] and in data set [23] was “Dose-Dependent Effect” each time. The IC50 in data set [2] turned out to be 17.6 µM; in [3], 26.2 µM; in data set [4], 36.3 µM; in data set [5] it was 32.1 µM.
With `NC(=O)[C@@H]1CCCN1C(=O)Cc1ccc(-c2ccc(OCc3ccc(Cl)c(Cl)c3)nc2)cc1`, in data set [1], the IC50 at 48 h was > 100 µM. For the same compound, the IC50 in data set [2] was 67.9 µM; in [3] it was 37.5 µM; in data set [4], > 100 µM; in data set [5] it was 32.7 µM.
In general, Ki refers to a dissociation constant, usually derived from enzyme kinetics or from competition with a known ligand. Lower therefore signals higher affinity. With `CCCCCCCCc1ccc(CC[C@](N)(CO)COC)cc1`, in data set [28], the affinity, expressed as Ki, was 50 µM. This lies in the double-digit micromolar range.
On to `O=C(Cc1ccc(-c2ccc(OCc3ccc(Cl)c(Cl)c3)nc2)cc1)N1CCC(O)CC1`, for which the 50% inhibitory concentration (IC50) at 48 h in data set [1] was > 100 µM. Also, the figures for the solubility in data set [7], in data set [8] and in data set [9] were 11.6 µM (≈ 5.48 µg/mL), 183 µM (≈ 86.5 µg/mL) and 59.6 µM (≈ 28.1 µg/mL), respectively. Also, the IC50 in [2] is > 100 µM; in data set [3], 59.2 µM; in data set [4], 16.4 µM; in [5], 36.3 µM.
In the case of `NC(=O)[C@@H]1CCCN1C(=O)Cc1ccc(-c2ccc(OCc3ccc(Cl)cc3)nc2)cc1`, in [1], the half-maximal inhibitory concentration (IC50) at 48 h was > 100 µM. In addition, the IC50 stood at 34.4 µM in data set [2], 27.2 µM in data set [3], 40.5 µM in data set [4] and 25.4 µM in data set [5].
`O=C(Cc1ccc(-c2ccc(OCc3ccc(Cl)cc3)nc2)cc1)N1CCC[C@H]1CO`: the IC50 at 48 h in [1] was > 100 µM. For the same compound, the IC50 in data set [2] worked out at 27.2 µM; in data set [3], 49.1 µM; in [4], 57.4 µM; in data set [5], 53.4 µM.
